In the supplement of paper PMC10307832:

Compound: CCc1cnn2c(NCc3ccc[n+]([O-])c3)cc(N3CCCC[C@H]3CCO)nc12 [Dinaciclib]
Assay: relative viability (nuclei count vs DMSO), 5 days (fraction); higher = more cells survive
Method in brief: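 On vehicle-anchored 1536-well plates, lung cancer cell lines held overnight at 37 °C were pinned with five library-drug doses (not always all listed) spaced by √10. With no medium change over 5 days, they were then fixed, permeabilised and Hoechst-stained in one step and imaged at 4×. MetaXpress counted nuclei, and viability is the median across plates of treated-well over vehicle-well nuclei. Acceptance needed control CV below 25% and at least one doubling.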

| Cell Line | relative viability (0.009487 µM) | relative viability (0.03 µM) | relative viability (0.09487 µM) | relative viability (0.3 µM) |
| --- | --- | --- | --- | --- |
| 201T | 1.09 | 0.632 | 0.339 | 0.236 |
| A549 | 0.968 | 0.32 | 0.0405 | 0.046 |
| A-427 | 0.828 | 0.144 | 0.084 | 0.0857 |
| ABC-1 | 0.757 | 0.237 | 0.165 | 0.116 |
| BEN | 1.06 | 0.812 | 0.214 | 0.257 |
| CAL-12T | 0.479 | 0.163 | 0.121 | 0.137 |
| COR-L23 | 0.891 | 0.162 | 0.0991 | 0.103 |
| COR-L 105 | 0.599 | 0.285 | 0.264 | 0.29 |
| ChaGo-K-1 | 0.95 | 0.246 | 0.203 | 0.146 |
| EKVX | 0.996 | 0.601 | 0.184 | 0.13 |
| EMC-BAC-2 | 0.951 | 0.413 | 0.224 | 0.197 |
| EPLC-272H | 0.855 | 0.0817 | 0.0396 | 0.0347 |
| H3255 | 0.928 | 0.56 | 0.219 | 0.196 |
| HARA | 0.912 | 0.18 | 0.088 | 0.0759 |
| HCC-15 | 0.772 | 0.154 | 0.114 | 0.114 |
| HCC-44 | 0.973 | 0.443 | 0.176 | 0.147 |
| HCC-78 | 0.914 | 0.326 | 0.175 | 0.199 |
| HCC-366 | 1.01 | 0.107 | 0.0385 | 0.0363 |
| HCC-827 | 1.1 | 0.85 | 0.188 | 0.168 |
| HOP-62 | 0.957 | 0.474 | 0.0898 | 0.0943 |
| IA-LM | 0.804 | 0.286 | 0.0334 | 0.0226 |
| LC-2-ad | 0.917 | 0.18 | 0.145 | 0.129 |
| LCLC-97TM1 | 0.506 | 0.134 | 0.0776 | 0.0861 |
| LCLC-103H | 1.03 | 0.855 | 0.204 | 0.146 |
| LK-2 | 0.888 | 0.193 | 0.177 | 0.151 |
| LOU-NH91 | 0.958 | 0.311 | 0.261 | 0.269 |

| Cell Line | relative viability (0.009487 µM) | relative viability (0.03 µM) | relative viability (0.09487 µM) | relative viability (0.3 µM) |
| --- | --- | --- | --- | --- |
| LU99A | 0.838 | 0.199 | 0.139 | 0.133 |
| LXF-289 | 1.07 | 0.924 | 0.134 | 0.101 |
| NCI-H23 | 0.633 | 0.176 | 0.109 | 0.126 |
| NCI-H322M | 0.721 | 0.333 | 0.289 | 0.258 |
| NCI-H358 | 0.785 | 0.153 | 0.104 | 0.131 |
| NCI-H441 | 1.13 | 0.162 | 0.146 | 0.158 |
| NCI-H460 | 0.885 | 0.0593 | 0.0265 | 0.0308 |
| NCI-H520 | 0.915 | 0.276 | 0.155 | 0.18 |
| NCI-H522 | 0.948 | 0.72 | 0.353 | 0.296 |
| NCI-H596 | 0.977 | 0.846 | 0.261 | 0.18 |
| NCI-H647 | 0.713 | 0.0972 | 0.0714 | 0.0765 |
| NCI-H650 | 0.874 | 0.21 | 0.159 | 0.137 |
| NCI-H661 | 1.03 | 0.246 | 0.201 | 0.19 |
| NCI-H727 | 0.975 | 0.411 | 0.222 | 0.245 |
| NCI-H838 | 0.88 | 0.173 | 0.128 | 0.137 |
| NCI-H1355 | 1.08 | 0.681 | 0.214 | 0.151 |
| NCI-H1395 | 0.637 | 0.308 | 0.263 | 0.272 |
| NCI-H1437 | 0.894 | 0.227 | 0.17 | 0.154 |
| NCI-H1563 | 1.25 | 0.552 | 0.314 | 0.286 |
| NCI-H1650 | 0.943 | 0.174 | 0.134 | 0.148 |
| NCI-H1651 | 0.969 | 0.764 | 0.186 | 0.0892 |
| NCI-H1666 | 0.896 | 0.485 | 0.376 | 0.345 |
| NCI-H1703 | 1.16 | 0.531 | 0.104 | 0.118 |
| NCI-H1734 | 0.824 | 0.145 | 0.133 | 0.14 |
| NCI-H1755 | 1.01 | 0.894 | 0.257 | 0.266 |
| NCI-H1792 | 1.01 | 0.358 | 0.117 | 0.0792 |

| Cell Line | relative viability (0.009487 µM) | relative viability (0.03 µM) | relative viability (0.09487 µM) | relative viability (0.3 µM) |
| --- | --- | --- | --- | --- |
| NCI-H1793 | 0.78 | 0.227 | 0.152 | 0.138 |
| NCI-H1915 | 0.69 | 0.202 | 0.159 | 0.12 |
| NCI-H1944 | 0.971 | 0.166 | 0.141 | 0.149 |
| NCI-H1975 | 0.969 | 0.442 | 0.164 | 0.144 |
| NCI-H1993 | 0.861 | 0.631 | 0.483 | 0.485 |
| NCI-H2009 | 0.937 | 0.179 | 0.109 | 0.1 |
| NCI-H2023 | 0.706 | 0.0772 | 0.0615 | 0.0696 |
| NCI-H2085 | 1.07 | 0.685 | 0.27 | 0.268 |
| NCI-H2087 | 0.954 | 0.14 | 0.111 | 0.122 |
| NCI-H2126 | 1.03 | 0.563 | 0.247 | 0.207 |
| NCI-H2170 | 0.942 | 0.24 | 0.171 | 0.156 |
| NCI-H2228 | 1.21 | 0.434 | 0.123 | 0.161 |
| NCI-H2342 | 1.11 | 0.696 | 0.368 | 0.301 |
| NCI-H2347 | 1.01 | 0.538 | 0.257 | 0.214 |
| NCI-H2405 | 0.947 | 0.405 | 0.246 | 0.23 |
| NCI-H3122 | 0.979 | 0.182 | 0.115 | 0.102 |
| PC-3 [JPC-3] | 1.05 | 0.92 | 0.4 | 0.266 |
| PC-14 | 0.766 | 0.163 | 0.0662 | 0.0529 |
| RERF-LC-KJ | 1.01 | 0.29 | 0.176 | 0.156 |
| SK-LU-1 | 1.09 | 0.227 | 0.192 | 0.196 |
| SK-MES-1 | 1.04 | 0.295 | 0.163 | 0.15 |
| SW 900 | 0.809 | 0.286 | 0.119 | 0.133 |
| SW 1573 | 0.83 | 0.133 | 0.0862 | 0.081 |
| UMC-11 | 0.405 | 0.204 | 0.179 | 0.196 |
